According to PubChem BioAssay AID2060894 (Molecular Pharmacology Branch, DTP, NCI, 2025):

System: K12877-001-R-J1-PDC complex spheroid viability
Test: Anticancer human tumor K12877-001-R-J1-PDC patient-derived lung adenocarcinoma cell line growth inhibition [RAS]
Settings: for IC50: curve of first compound; for viability, T/C: stronger effect = lower value
How it was run: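 Tumour cells grown as complex spheroids with HUVEC endothelial cells and mesenchymal stem cells, treated with RAS pathway inhibitor combinations. Each agent spans half-log steps from near clinical Cmax, or 10 microM where Cmax is unknown.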

[1] = second compound 0.000949 µM, first compound 0.0316 µM
[2] = second compound 0.000949 µM, first compound 0.1 µM
[3] = second compound 0.000949 µM, first compound 0.316 µM
[4] = second compound 0.000949 µM, first compound 1 µM
[5] = second compound 0.000949 µM, first compound 3.16 µM
[6] = second compound 0.000949 µM, first compound 10 µM
[7] = second compound 0.003 µM, first compound 0.0316 µM
[8] = second compound 0.003 µM, first compound 0.1 µM
[9] = second compound 0.003 µM, first compound 0.316 µM
[10] = second compound 0.003 µM, first compound 1 µM
[11] = second compound 0.003 µM, first compound 3.16 µM
[12] = second compound 0.003 µM, first compound 10 µM
[13] = second compound 0.00949 µM, first compound 0.0316 µM
[14] = second compound 0.00949 µM, first compound 0.1 µM
[15] = second compound 0.00949 µM, first compound 0.316 µM
[16] = second compound 0.00949 µM, first compound 1 µM
[17] = second compound 0.00949 µM, first compound 3.16 µM
[18] = second compound 0.00949 µM, first compound 10 µM
[19] = second compound 0.03 µM, first compound 0.0316 µM
[20] = second compound 0.03 µM, first compound 0.1 µM
[21] = second compound 0.03 µM, first compound 0.316 µM
[22] = second compound 0.03 µM, first compound 1 µM
[23] = second compound 0.03 µM, first compound 3.16 µM
[24] = second compound 0.03 µM, first compound 10 µM
[25] = second compound 0.0949 µM, first compound 0.0316 µM
[26] = second compound 0.0949 µM, first compound 0.1 µM
[27] = second compound 0.0949 µM, first compound 0.316 µM
[28] = second compound 0.0949 µM, first compound 1 µM
[29] = second compound 0.0949 µM, first compound 3.16 µM
[30] = second compound 0.0949 µM, first compound 10 µM
[31] = second compound 0.3 µM, first compound 0.0316 µM
[32] = second compound 0.3 µM, first compound 0.1 µM
[33] = second compound 0.3 µM, first compound 0.316 µM
[34] = second compound 0.3 µM, first compound 1 µM
[35] = second compound 0.3 µM, first compound 3.16 µM
[36] = second compound 0.3 µM, first compound 10 µM
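Further: spheroids exposed to agents for one week before readout.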

CC1(O)CCCC1n1c(=O)c(C(F)F)cc2cnc(NC3CCN(S(C)(=O)=O)CC3)nc21 (stereo not drawn) + CCn1c(-c2cc(N3CCN(C)CC3)cnc2C(C)OC)c2c3cc(ccc31)-c1csc(n1)CC(NC(=O)C1CC1C)C(=O)N1CCCC(N1)C(=O)OCC(C)(C)C2
IC50 (second compound 0.000949 µM): 4010 nM | IC50 (second compound 0.003 µM): 1990 nM | IC50 (second compound 0.00949 µM): 1840 nM | IC50 (second compound 0.03 µM): 889 nM | IC50 (second compound 0.0949 µM): 545 nM | IC50 (second compound 0.3 µM): 382 nM | viability, T/C [1]: 95.9% | viability, T/C [2]: 78% | viability, T/C [3]: 80.6% | viability, T/C [4]: 75.6% | viability, T/C [5]: 64.5% | viability, T/C [6]: 3.86% | viability, T/C [7]: 68.9% | viability, T/C [8]: 74% | viability, T/C [9]: 64.5% | viability, T/C [10]: 56.2% | viability, T/C [11]: 46.3% | viability, T/C [12]: 3.15% | viability, T/C [13]: 69.5% | viability, T/C [14]: 75.4% | viability, T/C [15]: 46.4% | viability, T/C [16]: 56.5% | viability, T/C [17]: 48.5% | viability, T/C [18]: 2.9% | viability, T/C [19]: 98.8% | viability, T/C [20]: 82% | viability, T/C [21]: 47.6% | viability, T/C [22]: 58.9% | viability, T/C [23]: 46% | viability, T/C [24]: 2.97% | viability, T/C [25]: 92% | viability, T/C [26]: 62.1% | viability, T/C [27]: 45.7% | viability, T/C [28]: 50.4% | viability, T/C [29]: 41.6% | viability, T/C [30]: 2.68% | viability, T/C [31]: 76.7% | viability, T/C [32]: 58% | viability, T/C [33]: 41.7% | viability, T/C [34]: 49.6% | viability, T/C [35]: 43.6% | viability, T/C [36]: 2.64%

CCC(CC)c1cc(NC2CCC(N)C2)n2nccc2n1 (stereo not drawn) + CCn1c(-c2cc(N3CCN(C)CC3)cnc2C(C)OC)c2c3cc(ccc31)-c1csc(n1)CC(NC(=O)C1CC1C)C(=O)N1CCCC(N1)C(=O)OCC(C)(C)C2
IC50 (second compound 0.000949 µM): 1310 nM | IC50 (second compound 0.003 µM): 1290 nM | IC50 (second compound 0.00949 µM): 1380 nM | IC50 (second compound 0.03 µM): 1510 nM | IC50 (second compound 0.0949 µM): 1270 nM | IC50 (second compound 0.3 µM): 1100 nM | viability, T/C [1]: 87.7% | viability, T/C [2]: 80% | viability, T/C [3]: 84.6% | viability, T/C [4]: 64.7% | viability, T/C [5]: 1.77% | viability, T/C [6]: 0.95% | viability, T/C [7]: 65.8% | viability, T/C [8]: 69.4% | viability, T/C [9]: 66.5% | viability, T/C [10]: 64% | viability, T/C [11]: 1.46% | viability, T/C [12]: 0.76% | viability, T/C [13]: 62% | viability, T/C [14]: 65.9% | viability, T/C [15]: 71.3% | viability, T/C [16]: 76.7% | viability, T/C [17]: 1.47% | viability, T/C [18]: 0.9% | viability, T/C [19]: 95.4% | viability, T/C [20]: 92.6% | viability, T/C [21]: 99.5% | viability, T/C [22]: 77.5% | viability, T/C [23]: 1.04% | viability, T/C [24]: 0.76% | viability, T/C [25]: 119% | viability, T/C [26]: 107% | viability, T/C [27]: 102% | viability, T/C [28]: 63.6% | viability, T/C [29]: 1.11% | viability, T/C [30]: 0.76% | viability, T/C [31]: 94.6% | viability, T/C [32]: 98.1% | viability, T/C [33]: 86.2% | viability, T/C [34]: 55.2% | viability, T/C [35]: 0.75% | viability, T/C [36]: 0.8%

Cc1nc(N2CCC3(CC2)COC(C)C3N)c(CO)nc1Sc1ccnc(N)c1Cl (stereo not drawn) + CCn1c(-c2cc(N3CCN(C)CC3)cnc2C(C)OC)c2c3cc(ccc31)-c1csc(n1)CC(NC(=O)C1CC1C)C(=O)N1CCCC(N1)C(=O)OCC(C)(C)C2
IC50 (second compound 0.000949 µM): > 10000 nM | IC50 (second compound 0.003 µM): > 10000 nM | IC50 (second compound 0.00949 µM): > 10000 nM | IC50 (second compound 0.03 µM): > 10000 nM | IC50 (second compound 0.0949 µM): > 10000 nM | IC50 (second compound 0.3 µM): 8660 nM | viability, T/C [1]: 77.8% | viability, T/C [2]: 69.4% | viability, T/C [3]: 71.7% | viability, T/C [4]: 59% | viability, T/C [5]: 66.7% | viability, T/C [6]: 58.7% | viability, T/C [7]: 63.6% | viability, T/C [8]: 57.7% | viability, T/C [9]: 62.1% | viability, T/C [10]: 63.4% | viability, T/C [11]: 69.3% | viability, T/C [12]: 71.3% | viability, T/C [13]: 72.2% | viability, T/C [14]: 70.8% | viability, T/C [15]: 79.8% | viability, T/C [16]: 73.4% | viability, T/C [17]: 71.8% | viability, T/C [18]: 56.4% | viability, T/C [19]: 97.1% | viability, T/C [20]: 93.7% | viability, T/C [21]: 93.9% | viability, T/C [22]: 81% | viability, T/C [23]: 75.9% | viability, T/C [24]: 59.5% | viability, T/C [25]: 98.8% | viability, T/C [26]: 94% | viability, T/C [27]: 94.5% | viability, T/C [28]: 76.2% | viability, T/C [29]: 67.2% | viability, T/C [30]: 50.2% | viability, T/C [31]: 97.5% | viability, T/C [32]: 86.1% | viability, T/C [33]: 81.5% | viability, T/C [34]: 71.2% | viability, T/C [35]: 65.6% | viability, T/C [36]: 45.6%

NC1c2ccccc2OC12CCN(c1cnc3c(N4CCCc5ncccc54)n[nH]c3n1)CC2 (stereo not drawn) + CCn1c(-c2cc(N3CCN(C)CC3)cnc2C(C)OC)c2c3cc(ccc31)-c1csc(n1)CC(NC(=O)C1CC1C)C(=O)N1CCCC(N1)C(=O)OCC(C)(C)C2
IC50 (second compound 0.000949 µM): > 10000 nM | IC50 (second compound 0.003 µM): 7630 nM | IC50 (second compound 0.00949 µM): 4860 nM | IC50 (second compound 0.03 µM): 3490 nM | IC50 (second compound 0.0949 µM): 1330 nM | IC50 (second compound 0.3 µM): 937 nM | viability, T/C [1]: 64.9% | viability, T/C [2]: 57.4% | viability, T/C [3]: 58% | viability, T/C [4]: 83.2% | viability, T/C [5]: 61.3% | viability, T/C [6]: 46.9% | viability, T/C [7]: 55.2% | viability, T/C [8]: 72.1% | viability, T/C [9]: 84.6% | viability, T/C [10]: 82.2% | viability, T/C [11]: 62.9% | viability, T/C [12]: 46% | viability, T/C [13]: 84.1% | viability, T/C [14]: 80% | viability, T/C [15]: 74.1% | viability, T/C [16]: 64.9% | viability, T/C [17]: 59.5% | viability, T/C [18]: 38.6% | viability, T/C [19]: 102% | viability, T/C [20]: 97.1% | viability, T/C [21]: 72.4% | viability, T/C [22]: 64% | viability, T/C [23]: 56.9% | viability, T/C [24]: 34.2% | viability, T/C [25]: 91.9% | viability, T/C [26]: 77.6% | viability, T/C [27]: 64.9% | viability, T/C [28]: 52.7% | viability, T/C [29]: 41.9% | viability, T/C [30]: 33% | viability, T/C [31]: 77.4% | viability, T/C [32]: 67.7% | viability, T/C [33]: 60% | viability, T/C [34]: 49.3% | viability, T/C [35]: 39.1% | viability, T/C [36]: 26%
